Experiment [1] addresses eqBuChE (from equine serum) (Equus caballus, UniProt P81908). Kind of experiment: biochemical. It is filed as biochemical.
Experiment [2] addresses TcAChE (from electric eel) (Electrophorus electricus, UniProt O42275). Nature of the experiment: Cholinesterase assay. It is filed as biochemical.
A short description of experiment [3]: DPPH free radical scavenging. Particulars: read-out: DPPH IC50; 0.1 mM DPPH in methanol, 30 min, room temperature, 517 nm. It is filed as physicochemical.

The source of these data is PMC5418947 (The Open Medicinal Chemistry Journal, 2017).

The structures appear in SMILES notation. pIC50: −log10 of the molar value. Like-named read-outs stand apart in the source and are kept apart here. Some results are limits rather than exact numbers.

Sequence of TcAChE (from electric eel) (O42275 24-633): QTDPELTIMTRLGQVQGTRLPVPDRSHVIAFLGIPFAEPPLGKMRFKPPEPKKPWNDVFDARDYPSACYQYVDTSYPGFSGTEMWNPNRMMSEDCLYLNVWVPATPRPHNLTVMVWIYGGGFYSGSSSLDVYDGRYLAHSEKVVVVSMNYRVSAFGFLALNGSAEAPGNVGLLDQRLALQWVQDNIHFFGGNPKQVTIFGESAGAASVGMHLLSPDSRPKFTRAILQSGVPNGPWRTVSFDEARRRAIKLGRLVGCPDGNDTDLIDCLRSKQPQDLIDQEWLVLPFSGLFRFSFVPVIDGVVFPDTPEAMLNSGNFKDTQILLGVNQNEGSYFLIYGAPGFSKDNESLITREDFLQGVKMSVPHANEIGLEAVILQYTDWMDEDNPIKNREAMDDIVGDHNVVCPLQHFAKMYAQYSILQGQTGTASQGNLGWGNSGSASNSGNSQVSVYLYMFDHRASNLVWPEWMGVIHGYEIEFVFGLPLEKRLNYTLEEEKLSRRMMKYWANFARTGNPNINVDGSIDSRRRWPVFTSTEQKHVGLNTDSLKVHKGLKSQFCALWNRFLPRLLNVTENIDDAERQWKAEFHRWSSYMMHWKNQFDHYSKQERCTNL
Sequence of eqBuChE (from equine serum) (P81908 whole entry): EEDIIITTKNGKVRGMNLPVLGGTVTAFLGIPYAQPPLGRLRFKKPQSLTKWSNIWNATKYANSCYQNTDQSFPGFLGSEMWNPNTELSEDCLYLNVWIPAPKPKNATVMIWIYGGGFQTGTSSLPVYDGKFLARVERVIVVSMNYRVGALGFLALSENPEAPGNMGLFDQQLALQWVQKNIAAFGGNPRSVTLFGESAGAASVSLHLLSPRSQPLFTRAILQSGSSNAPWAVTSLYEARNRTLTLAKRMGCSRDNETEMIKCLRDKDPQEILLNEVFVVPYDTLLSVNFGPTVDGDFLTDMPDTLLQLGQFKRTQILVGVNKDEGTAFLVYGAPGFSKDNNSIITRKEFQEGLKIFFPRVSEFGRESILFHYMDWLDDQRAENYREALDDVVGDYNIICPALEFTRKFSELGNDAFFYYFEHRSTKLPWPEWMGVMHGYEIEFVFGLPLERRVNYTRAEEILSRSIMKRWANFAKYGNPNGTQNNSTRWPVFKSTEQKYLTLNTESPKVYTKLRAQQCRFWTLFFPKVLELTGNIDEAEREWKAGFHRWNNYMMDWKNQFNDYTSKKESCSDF

For `Cc1c(C)c2c(c(C)c1O)CCC(C)(C(=O)NCCNc1c3c(nc4ccccc14)CCCC3)O2` (stereo not drawn) [Compound 8a, 6-Hydroxy-2,5,7,8-tetramethyl-N-{2-[(1,2,3,4-tetrahydroacridin-9-yl)amino]ethyl}-3,4-dihydro-2H-1-benzopyran-2-carboxamide], the “BuChE selectivity index (SI) = IC50(TcAChE)/IC50(eqBuChE)” value (from here on “BuChE selectivity index”) in experiment [1] is 11.87. Also, the pIC50 (commonly the IC50 on a negative log10 scale, so that one unit is a factor of ten) was 6.89 in experiment [1], 5.82 in experiment [2] and 4.34 in experiment [3].

In the case of `Cc1c(C)c2c(c(C)c1O)CCC(C)(C(=O)NCCCNc1c3c(nc4ccccc14)CCCC3)O2` (stereo not drawn) [Compound 8b, 6-Hydroxy-2,5,7,8-tetramethyl-N-{3-[(1,2,3,4-tetrahydroacridin-9-yl)amino]propyl}-3,4-dihydro-2H-1-benzopyran-2-carboxamide], the results for the pIC50 in experiment [1], in experiment [2] and in experiment [3] were 7.90, 5.82 and 4.94, respectively. In addition, in experiment [1] (ratio of IC50 values), the “BuChE selectivity index” value is given as 121.62.

With `Cc1c(C)c2c(c(C)c1O)CCC(C)(C(=O)NCCCCNc1c3c(nc4ccccc14)CCCC3)O2` (stereo not drawn) [Compound 8c, 6-Hydroxy-2,5,7,8-tetramethyl-N-{4-[(1,2,3,4-tetrahydroacridin-9-yl)amino]butyl}-3,4-dihydro-2H-1-benzopyran-2-carboxamide], in experiment [1], the “BuChE selectivity index” value is 196.07. Also, the pIC50 in experiment [1] is 7.95; in experiment [2], 5.66; in experiment [3], 4.84.

Consider `Cc1c(C)c2c(c(C)c1O)CCC(C)(C(=O)NCCCCCCNc1c3c(nc4ccccc14)CCCC3)O2` (stereo not drawn) [Compound 8d, 6-Hydroxy-2,5,7,8-tetramethyl-N-{6-[(1,2,3,4-tetrahydroacridin-9-yl)amino]hexyl}-3,4-dihydro-2H-1-benzopyran-2-carboxamide], for which, in experiment [1], the “BuChE inhibitor activity, fold higher than tacrine” value is given as “more than 3 fold”; the “BuChE selectivity index” value is recorded as 10.40; the negative-log IC50 (pIC50) is 8.32. Besides, in experiment [2], the negative-log IC50 (pIC50) is 7.31. Further, the pIC50 in experiment [3] was 4.90.

`c1ccc2c(NCCCCCCCN3CCc4c([nH]c5ccccc45)C3)c3c(nc2c1)CCCC3` [Compound 14, N-(7-(3,4-dihydro-1H-pyrido[3,4-b]indol-2(9H)-yl)heptyl)-1,2,3,4-tetrahydroacridin-9-amine]: the pIC50 was 8.50 in experiment [1] and 3.89 in experiment [3]. In addition, in experiment [1] (ratio of IC50 values), the “BuChE selectivity index” value was determined as 5.49. Also, in experiment [1] (relative to tacrine), the “BuChE inhibitor activity, fold higher than tacrine” value is on record as “more than 3 fold”.

For the molecule `c1ccc2c3c([nH]c2c1)CN(CCN1CCc2c([nH]c4ccccc24)C1)CC3` [Compound 16, 1,2-Bis(3,4-dihydro-1H-pyrido[3,4-b]indol-2(9H)-yl)ethane], the pIC50 is 5.77 in experiment [1], below 4.00 in experiment [2] and 3.90 in experiment [3]. In addition, the “BuChE selectivity index” value in experiment [1] (ratio of IC50 values) was above 58.88. In addition, the “AChE inhibitory activity (in words)” value in experiment [2] (Ellman's method) is given as “no inhibitory activity”.

For `Cc1c(C)c2c(c(C)c1O)CCC(C)(C(=O)O)O2` (stereo not drawn) [Trolox, reference compound], the negative logarithm of the IC50 (pIC50) in experiment [3] is 4.76.
